# Source: patent publication US9376665B2, “Method for producing intestinal cells” (National University Corporation Kumamoto University, priority 2010, dated 2016)
# B1: BMP4: BMP4 (R&D Systems), activates the BMP signaling (protein, UniProt P12644 293-408, looked up)
# Bone morphogenetic protein 4: SPKHHSQRARKKNKNCRRHSLYVDFSDVGWNDWIVAPPGYQAFYCHGDCPFPLADHLNSTNHAIVQTLVNSVNSSIPKACCVPTELSAISMLYLDEYDKVVLKNYQEMVVEGCGCR
# B2: FGF7: FGF7 (R&D Systems), growth factor (protein, UniProt P21781 32-194, looked up)
# Fibroblast growth factor 7: CNDMTPEQMATNVNCSSPERHTRSYDYMEGGDIRVRRLFCRTQWYLRIDKRGKVKGTQEMKNNYNIMEIRTVAVGIVAIKGVESEFYLAMNKEGKLYAKKECNEDCNFKELILENHYNTYASAKWTHNGGEMFVALNQKGIPVRGKKTKKEQKTAHFLPMAIT
# B3: Noggin: Noggin (R&D systems), a BMP-signaling inhibitor (protein, UniProt Q13253 28-232, looked up)
# Noggin: QHYLHIRPAPSDNLPLVDLIEHPDPIFDPKEKDLNETLLRSLLGGHYDPGFMATSPPEDRPGGGGGAAGGAEDLAELDQLLRQRPSGAMPSEIKGLEFSEGLAQGKKQRLSKKLRRKLQMWLWSQTFCPVLYAWNDLGSRFWPRYVKVGSCFSKRSCSVPEGMVCKPSKSVHLTVLRWRCQRRGGQRCGWIPIQYPIISECKCSC
# B4: FGF10: FGF10 (R&D Systems), growth factor (protein, UniProt O15520 38-208, looked up)
# Fibroblast growth factor 10: QALGQDMVSPEATNSSSSSFSSPSSAGRHVRSYNHLQGDVRWRKLFSFTKYFLKIEKNGKVSGTKKENCPYSILEITSVEIGVVAVKAINSNYYLAMNKKGKLYGSKEFNNDCKLKERIEENGYNTYASFNWQHNGRQMYVALNGKGAPRRGQKTRRKNTSAHFLPMVVHS
# B5: FGF18: FGF18 (Sigma), growth factor (protein, UniProt O76093 28-207, looked up)
# Fibroblast growth factor 18: EENVDFRIHVENQTRARDDVSRKQLRLYQLYSRTSGKHIQVLGRRISARGEDGDKYAQLLVETDTFGSQVRIKGKETEFYLCMNRKGKLVGKPDGTSKECVFIEKVLENNYTALMSAKYSGWYVGFTKKGRPRKGPKTRENQQDVHFMKRYPKGQPELQKPFKYTTVTKRSRRIRPTHPA
# B6: FGF4: FGF4 (Peprotech), growth factor (protein, UniProt P08620 31-206, looked up)
# Fibroblast growth factor 4: APTAPNGTLEAELERRWESLVALSLARLPVAAQPKEAAVQSGAGDYLLGIKRLRRLYCNVGIGFHLQALPDGRIGGAHADTRDSLLELSPVERGVVSIFGVASRFFVAMSSKGKLYGSPFFTDECTFKEILLPNNYNAYESYKYPGMFIALSKNGKTKKGNRVSPTMKVTHFLPRL
# Assays:
# mouse ES cells [1] = experiment: Intestinal differentiation of mouse ES cells on M15 cells; marker expression by PCR and immunohistochemistry; format: cell-based; details: quantitative PCR, BIO or DAPT added alone after definitive endoderm induction, Day 20 (d20)
# Procedure: In this example, a cell line R1 was used as mouse ES cells. The cell line R1 was maintained on mouse embryonic fibroblast (MEF) feeders in 2000 mg/L-glucose-containing DMEM supplemented with Leukemia Inhibitory Factor (LIF), 10% fetal bovine serum (FBS), 100 μM of non-essential amino acids (NEAA), 2 mM of L-Gln, 50 units/mL of penicillin and 50 μg/mL of streptomycin (PS), and 100 μM β-mercaptoethanol.
# (§1) The ES cells were culture on M15 cells added with 20 ng/mL of activin and 50 ng/mL of bFGF in DMEM medium containing 10% fetal bovine sera and […] of glucose for 5 days, and were analyzed using flow cytometry for definitive endoderm. For intestinal differentiation, the ES cells were further cultured on M15 or MEF cells, in the presence of BIO and DAPT, or without BIO and DAPT but with FGFs, in media with 10% KSR at a glucose concentration of 2000 mg/mL.
# RNA was extracted from the ES cells using TRI Reagent (Sigma) or RNeasy micro-kit (Qiagen), and then, was treated with DNase (Sigma). Three micrograms of RNA were reverse-transcribed using a MMLV reverse transcriptase (Toyobo) and oligo dT primers (Toyobo). […]
# [2] = tested on: definitive endoderm cells; experiment: Re-culture of sorted ES cell-derived definitive endoderm cells on feeder cells with BIO and DAPT; marker expression; format: cell-based, mouse
# Procedure: as §1
# The cells were dissociated with Cell Dissociation Buffer (Invitrogen), adjusted to 1×10^6 cells/50 μL, and stained with appropriate antibodies. A biotin- or Alexa 488-conjugated anti-E-cadherin monoclonal antibody ECCD2, and a phycoerythrin (PE)-conjugated anti-Cxcr4 mAb 2B11 (BD Pharmingen) were used as the antibodies. The stained cells were purified with FACS Aria (BD Pharmingen). Data were recorded using the BD FACSDiva Software program (BD Pharmingen), and were analyzed using the Flowjo program (Tree Star).
# (§2) RNA was extracted from the ES cells using TRI Reagent (Sigma) or RNeasy micro-kit (Qiagen), and then, was treated with DNase (Sigma). Three micrograms of RNA were reverse-transcribed using a MMLV reverse transcriptase (Toyobo) and oligo dT primers (Toyobo). The PCR conditions for each cycle include initial denaturation at 96° C. for one minute, and the second and subsequent cycles of denaturation at 96° C. for 30 seconds, annealing at 60° C. for 2 seconds and extension at 72° C. for 20 seconds, and the final cycle of extension at 72° C. for 7 minutes. RT-PCR products were separated by 5% non-denaturing polyacrylamide gel electrophoresis, stained with SYBR Green I (Molecular Probes), and visualized using Gel Logic 200 Imaging System (Kodak).
# mouse ES cells [3] = experiment: Test Example 2: addition of various activators, proportion of Cdx2-positive cells by flow cytometry, feeder-free; format: cell-based; details: for efficiency of differentiation, BMP4 or SAG added besides FGF2: 15th day of cultivation, with BIO and DAPT
# Procedure: Therefore, next, an experiment in which the FGF signaling, the BMP signaling and the Hh signaling were activated was carried out. In view of micro-array data showing that MEF cells express FGF2 and BMP4, 50 ng/mL of FGF2 (PEPROTECH) and 25 ng/mL of BMP4 (R&D Systems) were used to activate the FGF signaling and the BMP signaling. Furthermore, as to activation of the Hh signaling, 300 nM of SAG (MERCK) (smoothend agonist; smo) was used.
# For the experiment of inducing the differentiation, the induction of differentiation was carried out in a feeder-free system as described below. First, mouse ES cells were plated on a gelatin-coated dish at 6,900 cells/cm^2. The ES cells were cultured for 7 days in DMEM medium (Dulbecco's Modified Eagle Medium) (Invitrogen, Glasgow, UK) containing 4,500 mg/L of glucose, supplemented with NEAA, L-Gln, PS, β-ME, 10 μg/mL of Insulin (Sigma-Aldrich), […] of Transferin (Sigma-Aldrich), 6.7 pg/mL of Selenium (Sigma-Aldrich), 0.25% AlbuMax (Invitrogen), and 10 ng/mL of recombinant human activin A (R&D Systems, Minneapolis, Minn.), and then, the culture medium was replaced with 10% KSR containing 2,000 mg/mL of glucose, BIO (5 μM) and DAPT (10 μM) and further supplemented with the activator or growth factor. After that, cell culturing was further continued, the cells were separated on the 10th day and the 15th day of cultivation as described in Example 1, and then, the proportion of Cdx2-positive cells was evaluated by use of flow cytometry. The flow cytometry (FACS) analysis was carried out using BD Cytofix/Cytoperm™ Kit (BD Biosciences) in accordance with a manual provided by the manufacturer.
# ES cells = experiment: Effect of signalling inhibitors on intestinal differentiation by BIO and DAPT (Cdx2 RT-PCR and immunohistochemistry); format: cell-based, mouse; details: inhibitor added with BIO and DAPT on MEF cells; RT-PCR and anti-Cdx2 immunohistochemistry, day 12
# Procedure: Definitive endoderms were sorted from ES cells which had been cultured on M15 cells with activin and bFGF for 4 days, and the sorted cells were re-plated on MEF cells.
# 10 μg/mL of human bFGF (Peprotech), U0126 (Sigma), LY294002 (Calbiochem), and SU5402 (Calbiochem), respectively;
# mouse ES cells [4] = experiment: Test Example 1: addition of various inhibitors, Cdx2 expression by real-time PCR; format: cell-based; details: inhibitor plus BIO (5 μM) and DAPT (10 μM) on MEF cells for 8 days (12th day of cultivation), Noggin 500 ng/mL, Dorsomorphin 200 nM, KAAD-Cyclopamine 250 nM
# Procedure: In order to clarify what mechanism induces the intestinal differentiation in a case where mouse ES cells are used as a starting material, inhibitors against various signal transduction systems were added besides BIO and DAPT, and conditions in which expression of an intestinal marker Cdx2 decreases were evaluated.
# As an inhibitor, 500 ng/mL of Noggin (R&D systems) or 200 nM of Dorsomorphin (SIGMA-ALDRICH), which is a BMP-signaling inhibitor; 1 μM of LE540 (Wako), which is a retinoic-acid-signaling inhibitor; 250 nM of KAAD-Cyclopamine (Calbiochem), which is a hedgehog-signaling inhibitor; or 10 μM of AMD3100 (SIGMA-ALDRICH), which is a Cxcr4 inhibitor, was added thereto. […] After that, the above-sorted definitive endoderm cells were cultured in the presence of BIO (5 μM) and DAPT (10 μM) as well as the above-mentioned inhibitor for 8 days (until the 12th day of cultivation) in accordance with the method described in Example 1, RNAs were extracted from the cells by the method described in Example 1, and expression of the Cdx2 gene, namely an intestinal marker, was analyzed by real-time PCR. The real-time PCR was carried out by use of the primer pairs used in Example 1 (see Table 1), Thunderbird SYBR qPCR mix (Toyobo), and 7500 Fast Real-Time PCR system (ABI Company).
# [5] = tested on: definitive endoderm cells; experiment: Effects of FGFs on intestinal differentiation of definitive endoderm cells (RT-PCR, Cdx2 immunohistochemistry); format: cell-based, mouse; details: FGFs added from Day 4 of the differentiation, on MEF cells; immunohistochemistry on day 12
# Procedure: as §1
# 256 ng/mL of FGF2 (human bFGF) (Peprotech); and
# 50 ng/mL of FGF4 (Peprotech), FGF5 (Sigma), FGF7 (R&D Systems), FGF8 (Cosmo Bio), FGF9 (Peprotech), FGF10 (R&D Systems) and FGF18 (Sigma), respectively.
# as §2
# [6] = high BIO concentration with DAPT (10 μM)
# [7] = high concentration of DAPT in the presence of BIO (5 μM)
molecule,measurement,setting,value
"O=C1Nc2cc(Br)ccc2/C1=C1/Nc2ccccc2/C1=N\O [BIO, (2′Z,3′E)-6-bromoindirubin-3′-oxime]",expression of Intestinal fatty acid binding protein (Ifabp),mouse ES cells [1],induced expression
same,Hoxc8,[2]; [6],turning on
same,Pax8,[2]; [6],turned off
"C[C@H](NC(=O)Cc1cc(F)cc(F)c1)C(=O)N[C@H](C(=O)OC(C)(C)C)c1ccccc1 [DAPT, N-[(3,5-difluorophenyl)acetyl]-L-Ala-2-phenyl-L-Gly-tert-butyl-OH]",expression of Intestinal fatty acid binding protein (Ifabp),mouse ES cells [1],induced expression
same,anterior marker Pax8,[2]; [7],turned off
same,posterior marker Hoxc8,[2]; [7],inducing
"CNC1CCC(N(Cc2cccc(-c3ccncc3)c2)C(=O)c2sc3ccccc3c2Cl)CC1 (stereo not drawn) [SAG, N-Methyl-N′-(3-pyridinylbenzyl)-N′-(3-chlorobenzo[b]thiophene-2-carbonyl)-1,4-diaminocyclohexane, reference compound]",number of Cdx2-positive cells versus control (only BIO and DAPT),"mouse ES cells [3]; 10th day of cultivation, FGF2 50 ng/mL or SAG 300 nM added besides BIO and DAPT",decrease
same,"efficiency of differentiation, BMP4 or SAG added besides FGF2",mouse ES cells [3],yet more efficiently differentiate
Cc1c[nH]c(/C=C2\C(=O)Nc3ccccc32)c1CCC(=O)O [SU5402],intestinal differentiation mediated by BIO and DAPT (Cdx2 expression),ES cells,partially inhibited
N#CC(=C(/N)Sc1ccccc1N)/C(C#N)=C(\N)Sc1ccccc1N [U0126],intestinal differentiation mediated by BIO and DAPT (Cdx2 expression),ES cells,not inhibited
KAAD-Cyclopamine [reference compound],expression of Cdx2,mouse ES cells [4],lowered
B1,"number of Cdx2-positive cells, BMP4 added in addition to SAG","mouse ES cells [3]; 10th day of cultivation, BMP4 25 ng/mL, SAG 300 nM, BIO and DAPT",improved
same,"efficiency of differentiation, BMP4 or SAG added besides FGF2",mouse ES cells [3],yet more efficiently differentiate
B2,induction of Cdx2-expressing intestinal cells,[5],"induced intestinal differentiation of ES cells, but the levels thereof were lower"
B3,expression of Cdx2,mouse ES cells [4],lowered
B4,induction of Cdx2-expressing intestinal cells,[5],"induced intestinal differentiation of ES cells, but the levels thereof were lower"
B5,induction of Cdx2-expressing intestinal cells,[5],"induced intestinal differentiation of ES cells, but the levels thereof were lower"
B6,induction of Cdx2-expressing intestinal cells,[5],more potent in inducing Cdx2-expressing cells than FGF2 (bFGF)
